In BindingDB's records for patent US20240376119 (Cspc Zhongqi Pharmaceutical Technology (Shijiazhuang), 2024):

Molecular target: T1, Tyrosine-protein phosphatase non-receptor type 11 (Homo sapiens, UniProt Q06124)
T1 sequence (Q06124 whole entry): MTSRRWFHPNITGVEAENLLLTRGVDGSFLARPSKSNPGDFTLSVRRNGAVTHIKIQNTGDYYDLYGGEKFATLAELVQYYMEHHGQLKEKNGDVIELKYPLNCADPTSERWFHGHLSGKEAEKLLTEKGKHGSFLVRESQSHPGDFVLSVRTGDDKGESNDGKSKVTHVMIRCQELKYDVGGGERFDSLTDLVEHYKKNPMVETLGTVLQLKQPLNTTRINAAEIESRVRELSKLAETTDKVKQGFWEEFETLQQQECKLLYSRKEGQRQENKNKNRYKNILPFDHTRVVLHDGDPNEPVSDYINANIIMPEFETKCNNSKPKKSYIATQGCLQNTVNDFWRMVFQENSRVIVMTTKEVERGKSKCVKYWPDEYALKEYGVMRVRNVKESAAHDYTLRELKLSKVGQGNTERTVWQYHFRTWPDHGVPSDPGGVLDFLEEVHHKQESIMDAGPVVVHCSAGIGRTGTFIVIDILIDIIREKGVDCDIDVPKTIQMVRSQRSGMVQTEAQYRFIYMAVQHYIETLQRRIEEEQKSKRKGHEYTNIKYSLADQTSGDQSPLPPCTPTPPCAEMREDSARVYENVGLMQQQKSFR
Test: Assay for the inhibitory effect on the SHP2 enzyme
Method: A mixed liquor of 2× working SHP2 reagent (0.4 nM) and 0.5 μM SHP-2 activated peptide (BPS bioscience #79319-2) was prepared with 1× enzyme buffer. After the above-mixed liquor was incubated at 25° C. for 60 minutes, 5 μL of activated SHP2 kinase solution was transferred with a pipettor to the compound wells and the Max control wells (Corning, #4514) of the plate. Then 5 μL of 1× kinase buffer was transferred to the Min control wells. The plate was centrifuged at 1000 rpm for 30 seconds, sealed, and incubated in a 25° C. constant-temperature incubator for 30 minutes. A substrate solution of DiFMUP (#D6567, Invitrogen™) was prepared with 1× kinase buffer, and its concentration should be 2 times as the final concentration of the assay (DiFMUP final concentration: 10 μM). 5 μL of the prepared substrate solution was transferred with an electric pipettor into each well of the ELISA plate to start the reaction. The plate was centrifuged at 1000 rpm for 30 seconds, sealed, and incubated in a 25° C. constant-temperature incubator for 60 minutes. Read the plate at the excitation/emission wavelength of 358/455 nm after the ELISA plate was placed on the Spark machine.

## COC(=O)c1nc(Sc2cccc(-c3ccn(C)n3)c2Cl)cnc1N1CCC2(CC1)Cc1ccccc1[C@H]2N [US20240376119, Example 19]
  IC50: in the range around 20 nM
